Consider one molecule from ChEMBL document CHEMBL4304811, “Development of a Water-Soluble Indolylmaleimide Derivative IM-93 Showing Dual Inhibition of Ferroptosis and NETosis” (ACS Med Chem Lett, 2019).

Test [1] deals with Serine/threonine-protein kinase 16 (Homo sapiens) (UniProt O75716). Description: Binding affinity to wild-type human partial length STK16 (G11 to I305 residues) expressed in bacterial expression system assessed as residual binding level at 10 uM by Kinomescan method relative to control.
The target of test [2] is Cyclin-dependent kinase 2 homolog (Plasmodium falciparum (isolate 3D7)) (UniProt P61075). Description: Binding affinity to wild-type Plasmodium falciparum full length PK5 (M1 to N288 residues) expressed in mammalian expression system assessed as residual binding level at 10 uM by Kinomescan method relative to control.
Test [3] has as its target Platelet-derived growth factor receptor beta (Homo sapiens) (UniProt P09619). In words: Binding affinity to wild-type human partial length PDGFRB (V582 to Y1009 residues) expressed in bacterial expression system assessed as residual binding level at 10 uM by Kinomescan method relative to control.
Test [4] addresses Serine/threonine-protein kinase MARK2 (Homo sapiens) (UniProt Q7KZI7). Description: Binding affinity to wild-type human partial length MARK2 (M1 to R450 residues) expressed in bacterial expression system assessed as residual binding level at 10 uM by Kinomescan method relative to control.
Test [5] relates to Phosphatidylinositol 4,5-bisphosphate 3-kinase catalytic subunit alpha isoform (Homo sapiens), P42336 [E545A]. In words: Binding affinity to human partial length PIK3CA E545A mutant (R108 to N1068 residues) expressed in mammalian expression system assessed as residual binding level at 10 uM by Kinomescan method relative to control.
Test [6] deals with Eukaryotic translation initiation factor 2-alpha kinase 1 (Homo sapiens) (UniProt Q9BQI3). Description: Binding affinity to wild-type human partial length EIF2AK1 (Q147 to E603 residues) expressed in mammalian expression system assessed as residual binding level at 10 uM by Kinomescan method relative to control.
Test [7] has as its target RAF proto-oncogene serine/threonine-protein kinase (Homo sapiens) (UniProt P04049). Description: Binding affinity to wild-type human partial length RAF1 (I330 to T640 residues) expressed in bacterial expression system assessed as residual binding level at 10 uM by Kinomescan method relative to control.
Test [8] deals with SRSF protein kinase 1 (Homo sapiens) (UniProt Q96SB4). In words: Binding affinity to wild-type human full length SRPK1 (M1 to S655 residues) expressed in bacterial expression system assessed as residual binding level at 10 uM by Kinomescan method relative to control.
Test [9] has as its target Tyrosine-protein kinase ITK/TSK (Homo sapiens) (UniProt Q08881). In words: Binding affinity to wild-type human partial length ITK (R335 to L620 residues) expressed in bacterial expression system assessed as residual binding level at 10 uM by Kinomescan method relative to control.
In test [10] the test system is Mast/stem cell growth factor receptor Kit (Homo sapiens), P10721 [L576P]. Description: Binding affinity to human partial length KIT L576P mutant (Y545 to D952 residues) expressed in bacterial expression system assessed as residual binding level at 10 uM by Kinomescan method relative to control.
The target of test [11] is Serine/threonine-protein kinase N1 (Homo sapiens) (UniProt Q16512). Description: Binding affinity to wild-type human partial length PKN1 (E598 to C948 residues) expressed in bacterial expression system assessed as residual binding level at 10 uM by Kinomescan method relative to control.
In test [12] the target is Activin receptor type-1B (Homo sapiens) (UniProt P36896). Description: Binding affinity to wild-type human ACVR1B (S187 to I505 residues) expressed in bacterial expression system assessed as residual binding level at 10 uM by Kinomescan method relative to control.
In test [13] the target is Hepatocyte growth factor receptor (Homo sapiens) (UniProt P08581). Description: Binding affinity to wild-type human partial length MET (D1010 to S1367 residues) expressed in bacterial expression system assessed as residual binding level at 10 uM by Kinomescan method relative to control.
Test [14] deals with Ephrin type-A receptor 2 (Homo sapiens) (UniProt P29317). In words: Binding affinity to wild-type human partial length EPHA2 (T593 to V891 residues) expressed in bacterial expression system assessed as residual binding level at 10 uM by Kinomescan method relative to control.
Test [15] has as its target Ribosomal protein S6 kinase alpha-4 (Homo sapiens) (UniProt O75676). In words: Binding affinity to wild-type human partial length C-terminal RPS6KA4 kinase domain 2 (M375 to T705 residues) expressed in mammalian expression system assessed as residual binding level at 10 uM by Kinomescan method relative to control.
The target of test [16] is RAC-beta serine/threonine-protein kinase (Homo sapiens) (UniProt P31751). In words: Binding affinity to wild-type human partial length AKT2 expressed in bacterial expression system assessed as residual binding level at 10 uM by Kinomescan method relative to control.
Test [17] concerns the target Maternal embryonic leucine zipper kinase (Homo sapiens) (UniProt Q14680). Description: Binding affinity to wild-type human full length MELK (M1 to V651 residues) expressed in bacterial expression system assessed as residual binding level at 10 uM by Kinomescan method relative to control.
Test [18] addresses LIM domain kinase 1 (Homo sapiens) (UniProt P53667). Description: Binding affinity to wild-type human full length LIMK1 (M1 to D647 residues) expressed in bacterial expression system assessed as residual binding level at 10 uM by Kinomescan method relative to control.
Test [19] has as its target MAP kinase-interacting serine/threonine-protein kinase 2 (Homo sapiens) (UniProt Q9HBH9). In words: Binding affinity to wild-type human partial length MKNK2 (G63 to S388 residues) expressed in mammalian expression system assessed as residual binding level at 10 uM by Kinomescan method relative to control.
Test [20] deals with Dual serine/threonine and tyrosine protein kinase (Homo sapiens) (UniProt Q6XUX3). In words: Binding affinity to wild-type human full length RIPK5 (M1 to T929 residues) expressed in mammalian expression system assessed as residual binding level at 10 uM by Kinomescan method relative to control.
Test [21] deals with Ephrin type-B receptor 3 (Homo sapiens) (UniProt P54753). Description: Binding affinity to wild-type human partial length EPHB3 (Q599 to T928 residues) expressed in bacterial expression system assessed as residual binding level at 10 uM by Kinomescan method relative to control.
Test [22] concerns the target Mitogen-activated protein kinase 12 (Homo sapiens) (UniProt P53778). Description: Binding affinity to wild-type human full length p38-gamma (M1 to L367 residues) expressed in mammalian expression system assessed as residual binding level at 10 uM by Kinomescan method relative to control.
Test [23] deals with Phosphorylase b kinase gamma catalytic chain, skeletal muscle/heart isoform (Homo sapiens) (UniProt Q16816). Description: Binding affinity to wild-type human full length PHKG1 (M1 to Y387 residues) expressed in bacterial expression system assessed as residual binding level at 10 uM by Kinomescan method relative to control.
The target of test [24] is Serine/threonine-protein kinase PAK 4 (Homo sapiens) (UniProt O96013). Description: Binding affinity to wild-type human partial length PAK4 (Q144 to R438 residues) expressed in bacterial expression system assessed as residual binding level at 10 uM by Kinomescan method relative to control.

Chain of Hepatocyte growth factor receptor (Homo sapiens) (P08581 whole entry, the tested form may be a part): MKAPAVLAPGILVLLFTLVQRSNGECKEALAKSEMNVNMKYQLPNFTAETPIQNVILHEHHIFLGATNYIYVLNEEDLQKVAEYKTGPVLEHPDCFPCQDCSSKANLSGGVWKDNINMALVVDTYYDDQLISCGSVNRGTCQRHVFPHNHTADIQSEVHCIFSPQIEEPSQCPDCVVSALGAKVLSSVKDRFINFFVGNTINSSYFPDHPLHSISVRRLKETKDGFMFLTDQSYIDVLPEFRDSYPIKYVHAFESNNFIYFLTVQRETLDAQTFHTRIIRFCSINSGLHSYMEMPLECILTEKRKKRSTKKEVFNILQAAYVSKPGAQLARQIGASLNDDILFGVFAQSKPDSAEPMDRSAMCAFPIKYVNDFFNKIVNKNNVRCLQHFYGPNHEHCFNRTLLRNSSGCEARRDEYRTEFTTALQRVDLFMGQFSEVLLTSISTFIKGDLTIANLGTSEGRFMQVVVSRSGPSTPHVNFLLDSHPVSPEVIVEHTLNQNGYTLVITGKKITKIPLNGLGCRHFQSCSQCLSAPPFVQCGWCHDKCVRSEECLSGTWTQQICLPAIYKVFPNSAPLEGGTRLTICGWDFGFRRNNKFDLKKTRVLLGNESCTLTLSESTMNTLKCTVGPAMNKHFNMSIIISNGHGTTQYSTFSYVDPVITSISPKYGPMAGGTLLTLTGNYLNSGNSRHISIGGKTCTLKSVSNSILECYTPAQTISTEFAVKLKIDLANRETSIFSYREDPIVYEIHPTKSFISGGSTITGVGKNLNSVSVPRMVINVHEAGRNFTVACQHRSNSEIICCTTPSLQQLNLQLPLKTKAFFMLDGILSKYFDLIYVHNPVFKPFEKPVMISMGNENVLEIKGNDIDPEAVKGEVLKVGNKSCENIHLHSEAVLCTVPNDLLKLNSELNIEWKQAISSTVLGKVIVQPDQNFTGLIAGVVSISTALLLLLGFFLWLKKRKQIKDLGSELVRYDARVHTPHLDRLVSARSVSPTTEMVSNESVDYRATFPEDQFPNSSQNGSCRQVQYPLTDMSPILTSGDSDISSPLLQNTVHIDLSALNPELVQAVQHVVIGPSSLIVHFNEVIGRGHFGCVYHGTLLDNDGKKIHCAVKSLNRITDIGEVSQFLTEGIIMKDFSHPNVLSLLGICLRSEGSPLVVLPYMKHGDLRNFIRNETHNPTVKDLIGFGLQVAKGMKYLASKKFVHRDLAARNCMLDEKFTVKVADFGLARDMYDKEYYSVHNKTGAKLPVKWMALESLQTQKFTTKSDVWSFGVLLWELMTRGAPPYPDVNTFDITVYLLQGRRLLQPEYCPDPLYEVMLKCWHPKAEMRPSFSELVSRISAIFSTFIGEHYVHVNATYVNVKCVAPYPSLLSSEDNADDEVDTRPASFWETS
Chain of Serine/threonine-protein kinase 16 (Homo sapiens) (O75716 whole entry, the tested form may be a part): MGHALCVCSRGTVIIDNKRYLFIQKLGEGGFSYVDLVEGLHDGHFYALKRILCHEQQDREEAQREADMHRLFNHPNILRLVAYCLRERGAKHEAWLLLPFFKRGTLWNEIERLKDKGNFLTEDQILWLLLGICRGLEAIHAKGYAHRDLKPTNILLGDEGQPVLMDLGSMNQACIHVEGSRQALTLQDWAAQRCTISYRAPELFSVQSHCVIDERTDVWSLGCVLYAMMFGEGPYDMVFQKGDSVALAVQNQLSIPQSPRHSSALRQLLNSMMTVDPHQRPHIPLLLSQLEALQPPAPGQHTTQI
Chain of LIM domain kinase 1 (Homo sapiens) (P53667 whole entry, looked up, the tested form may be a part): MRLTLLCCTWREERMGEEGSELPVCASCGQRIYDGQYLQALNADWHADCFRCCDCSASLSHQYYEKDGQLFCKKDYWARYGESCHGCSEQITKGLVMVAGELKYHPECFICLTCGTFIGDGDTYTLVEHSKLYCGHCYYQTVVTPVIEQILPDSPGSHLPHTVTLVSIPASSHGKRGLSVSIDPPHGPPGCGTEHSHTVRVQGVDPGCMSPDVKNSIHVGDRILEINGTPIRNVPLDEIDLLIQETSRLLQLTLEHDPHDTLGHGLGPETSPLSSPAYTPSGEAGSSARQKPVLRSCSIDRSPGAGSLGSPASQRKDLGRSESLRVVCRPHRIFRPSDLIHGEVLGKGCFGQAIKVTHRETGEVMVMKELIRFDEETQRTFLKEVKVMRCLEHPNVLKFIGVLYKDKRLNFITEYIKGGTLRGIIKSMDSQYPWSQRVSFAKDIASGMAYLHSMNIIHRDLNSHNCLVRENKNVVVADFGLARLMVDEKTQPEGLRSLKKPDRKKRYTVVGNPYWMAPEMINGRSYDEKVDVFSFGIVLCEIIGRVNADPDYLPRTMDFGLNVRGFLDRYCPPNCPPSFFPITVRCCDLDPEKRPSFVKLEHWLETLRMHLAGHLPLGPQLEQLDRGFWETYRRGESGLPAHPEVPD
Chain of RAC-beta serine/threonine-protein kinase (Homo sapiens) (P31751 whole entry, the tested form may be a part): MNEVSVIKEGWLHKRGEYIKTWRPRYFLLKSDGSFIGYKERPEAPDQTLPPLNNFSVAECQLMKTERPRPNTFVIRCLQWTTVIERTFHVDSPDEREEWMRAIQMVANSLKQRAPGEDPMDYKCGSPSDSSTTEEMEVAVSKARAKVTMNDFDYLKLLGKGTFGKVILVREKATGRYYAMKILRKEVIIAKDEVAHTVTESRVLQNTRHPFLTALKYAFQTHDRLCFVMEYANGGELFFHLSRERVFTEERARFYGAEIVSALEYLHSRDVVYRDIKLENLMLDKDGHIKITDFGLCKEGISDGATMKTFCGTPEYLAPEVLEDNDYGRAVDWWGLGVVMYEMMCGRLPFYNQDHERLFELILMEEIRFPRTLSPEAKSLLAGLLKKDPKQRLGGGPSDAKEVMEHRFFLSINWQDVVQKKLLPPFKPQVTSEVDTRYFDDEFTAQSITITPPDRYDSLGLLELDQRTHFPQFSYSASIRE
Chain of RAF proto-oncogene serine/threonine-protein kinase (Homo sapiens) (P04049 whole entry, the tested form may be a part): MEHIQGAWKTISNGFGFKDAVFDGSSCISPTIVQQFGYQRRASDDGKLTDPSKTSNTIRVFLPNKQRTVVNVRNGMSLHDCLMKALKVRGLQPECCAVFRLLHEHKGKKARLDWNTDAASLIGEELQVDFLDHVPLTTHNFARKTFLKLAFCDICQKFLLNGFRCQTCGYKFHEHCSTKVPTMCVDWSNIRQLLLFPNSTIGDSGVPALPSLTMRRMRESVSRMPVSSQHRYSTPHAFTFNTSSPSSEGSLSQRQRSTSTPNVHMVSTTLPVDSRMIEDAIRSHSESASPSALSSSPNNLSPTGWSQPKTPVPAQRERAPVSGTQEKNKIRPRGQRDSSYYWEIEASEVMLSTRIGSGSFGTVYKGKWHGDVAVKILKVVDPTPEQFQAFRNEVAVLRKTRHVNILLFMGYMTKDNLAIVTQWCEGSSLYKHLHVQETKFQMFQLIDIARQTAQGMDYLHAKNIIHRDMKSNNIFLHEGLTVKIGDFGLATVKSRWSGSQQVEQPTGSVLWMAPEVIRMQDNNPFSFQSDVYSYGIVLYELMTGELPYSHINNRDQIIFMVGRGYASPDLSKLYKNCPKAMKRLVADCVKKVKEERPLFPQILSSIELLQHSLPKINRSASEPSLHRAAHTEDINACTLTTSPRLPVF
Chain of Ribosomal protein S6 kinase alpha-4 (Homo sapiens) (O75676 whole entry, looked up, the tested form may be a part): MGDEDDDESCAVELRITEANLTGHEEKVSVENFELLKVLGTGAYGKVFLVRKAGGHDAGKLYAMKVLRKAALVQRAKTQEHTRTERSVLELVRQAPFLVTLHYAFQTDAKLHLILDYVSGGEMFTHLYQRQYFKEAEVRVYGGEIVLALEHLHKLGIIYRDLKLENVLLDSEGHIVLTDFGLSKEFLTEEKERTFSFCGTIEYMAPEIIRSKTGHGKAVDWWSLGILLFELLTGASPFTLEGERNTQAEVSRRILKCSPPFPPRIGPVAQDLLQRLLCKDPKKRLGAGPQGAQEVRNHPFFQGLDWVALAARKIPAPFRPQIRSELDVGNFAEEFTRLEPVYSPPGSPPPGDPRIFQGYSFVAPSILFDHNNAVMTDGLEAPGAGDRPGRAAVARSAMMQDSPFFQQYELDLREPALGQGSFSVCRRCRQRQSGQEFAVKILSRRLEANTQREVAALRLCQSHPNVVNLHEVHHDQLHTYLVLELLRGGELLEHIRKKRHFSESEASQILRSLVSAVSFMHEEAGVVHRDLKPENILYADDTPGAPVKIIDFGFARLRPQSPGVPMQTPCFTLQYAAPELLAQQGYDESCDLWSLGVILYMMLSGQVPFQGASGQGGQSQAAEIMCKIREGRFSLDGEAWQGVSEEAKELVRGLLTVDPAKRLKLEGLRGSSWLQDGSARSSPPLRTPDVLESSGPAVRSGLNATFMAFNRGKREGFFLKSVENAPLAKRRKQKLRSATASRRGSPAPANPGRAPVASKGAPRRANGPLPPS
Chain of Maternal embryonic leucine zipper kinase (Homo sapiens) (Q14680 whole entry, looked up, the tested form may be a part): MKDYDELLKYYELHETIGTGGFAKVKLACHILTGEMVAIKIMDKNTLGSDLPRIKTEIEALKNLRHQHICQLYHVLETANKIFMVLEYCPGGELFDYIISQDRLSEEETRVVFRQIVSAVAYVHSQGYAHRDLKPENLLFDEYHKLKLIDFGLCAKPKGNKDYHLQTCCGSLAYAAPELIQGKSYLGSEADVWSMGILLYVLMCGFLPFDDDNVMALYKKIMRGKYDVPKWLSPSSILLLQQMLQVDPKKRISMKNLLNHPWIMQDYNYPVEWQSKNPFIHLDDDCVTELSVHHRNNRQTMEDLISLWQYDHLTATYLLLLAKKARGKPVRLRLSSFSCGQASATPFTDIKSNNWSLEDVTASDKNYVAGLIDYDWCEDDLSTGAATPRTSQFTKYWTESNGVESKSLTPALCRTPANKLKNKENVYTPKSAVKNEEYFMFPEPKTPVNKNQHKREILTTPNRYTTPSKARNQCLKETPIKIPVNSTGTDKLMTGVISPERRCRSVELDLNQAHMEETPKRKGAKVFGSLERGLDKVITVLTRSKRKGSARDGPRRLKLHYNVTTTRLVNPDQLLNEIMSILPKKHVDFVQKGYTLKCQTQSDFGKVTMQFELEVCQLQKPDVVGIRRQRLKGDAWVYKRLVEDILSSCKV

As for `CC(C)N1C(=O)C(NCCCN(C)C)=C(c2cn(C)c3ccccc23)C1=O.Cl`, the Activity in [1] came to 99%; in [2], 87%; in test [3], 99%; in test [4] it was 93%; in test [5] it was 95%; in test [6], 82%. The Activity in test [7] amounted to 100%; in [8], 83%; in test [9] it was 100%; in test [10], 87%; in test [11], 100%; in test [12] it was 88%. Also, the Activity in [13] is 97%; in test [14] it was 90%; in test [15] it was 74%; in [16], 100%; in test [17] it was 100%; in test [18], 100%. Also, the Activity in test [19] worked out at 87%; in test [20], 100%; in test [21], 99%; in [22], 72%; in test [23], 94%; in test [24], 89%.
